Assay results reported in patent US12643883B2, “Solid state forms of a kinase inhibitor” (Deciphera Pharmaceuticals, LLC, priority 2023, dated 2026).
Each block holds one compound with its values, some of them ahead of it.

Tests used:
Type in all cases: physicochemical
[1] = Static storage stability of crystalline dihydrate and anhydrous forms (XRPD, DSC, KF once weekly for four weeks)
Experimental: The stability of crystalline dihydrate and anhydrous forms of the compound represented by Formula (I) at varying relative humidity (RH) and temperature was investigated.
For example, the stability of crystalline dihydrate and anhydrous forms of the compound represented by Formula (I), as prepared according to Example 1 and Example 2, respectively, was studied under other conditions by placing aliquots of each form in static storage at conditions of 40° C./75% RH, 25° C./97% RH, 40° C./0% RH and 25° C./0% RH and analyzing the aliquots once weekly for four weeks using XRPD, DSC, and KF.

[2] = Hydration experiment, slurry of crystalline anhydrous form in deionized water; conditions: successive 4-hour heat-cool cycles between 40° C. and room temperature for 72 hours
Experimental: In a hydration experiment, a slurry of the crystalline anhydrous form of the compound represented by Formula (I) and deionized water was subjected to successive 4-hour heat-cool cycles between 40° C. and room temperature for 72 hours.

[3] = Hydration of the crystalline anhydrous form in low water activity solvents; conditions: water activity 0.1, Ambient, XRPD
Experimental: The hydration of the crystalline anhydrous form was studied using aqueous solvent systems with low water activity of 0.1. Slurries of the crystalline anhydrous form in the respective solvent were agitated for 6 days at room temperature. Aliquots of isolated materials were analyzed after 24, 48, and 144 hours of agitation. Table 12 summarizes the experiment conditions and isolated crystalline forms, as determined by XRPD.

[4] = static storage 25° C./0% RH, Week 1
[5] = static storage 25° C./0% RH, Week 2
[6] = static storage 25° C./0% RH, Week 3
[7] = static storage 25° C./0% RH, Week 4
[8] = static storage 25° C./97% RH, Week 1
[9] = static storage 25° C./97% RH, Week 2
[10] = static storage 25° C./97% RH, Week 3
[11] = static storage 25° C./97% RH, Week 4
[12] = static storage 40° C./0% RH, Week 1
[13] = static storage 40° C./0% RH, Week 2
[14] = static storage 40° C./0% RH, Week 3
[15] = static storage 40° C./0% RH, Week 4
[16] = static storage 40° C./75% RH, Week 1
[17] = static storage 40° C./75% RH, Week 2
[18] = static storage 40° C./75% RH, Week 3
[19] = static storage 40° C./75% RH, Week 4
[20] = static storage 25° C./0% RH, Week 4, listed as crystalline dihydrate form (having average crystal sizes of about 1 mm), dihydrate
[21] = static storage 40° C./0% RH, Week 1, dihydrate
[22] = static storage 40° C./0% RH, Week 4, listed as crystalline dihydrate form (having average crystal sizes of about 1 mm), dihydrate

stability under all storage conditions ([1]; 40° C./75% RH, 25° C./97% RH, 40° C./0% RH and 25° C./0% RH, after 4 weeks): remained stable
KF (%) [1, 4]: 0.1%
XRPD [1, 4]: Anhydrous
KF (%) [1, 5]: 0.1%
XRPD [1, 5]: Anhydrous
KF (%) [1, 6]: 0.0%
XRPD [1, 6]: Anhydrous
KF (%) [1, 7]: 0.2%
XRPD [1, 7]: Anhydrous
KF (%) [1, 8]: 0.3%
XRPD [1, 8]: Anhydrous
KF (%) [1, 9]: 0.3%
XRPD [1, 9]: Anhydrous
KF (%) [1, 10]: 0.2%
XRPD [1, 10]: Anhydrous
KF (%) [1, 11]: 0.4%
XRPD [1, 11]: Anhydrous
KF (%) [1, 12]: 0.1%
XRPD [1, 12]: Anhydrous
KF (%) [1, 13]: 0.0%
XRPD [1, 13]: Anhydrous
KF (%) [1, 14]: 0.0%
XRPD [1, 14]: Anhydrous
KF (%) [1, 15]: 0.2%
XRPD [1, 15]: Anhydrous
KF (%) [1, 16]: 0.3%
XRPD [1, 16]: Anhydrous
KF (%) [1, 17]: 0.2%
XRPD [1, 17]: Anhydrous
KF (%) [1, 18]: 0.1%
XRPD [1, 18]: Anhydrous
KF (%) [1, 19]: 0.3%
XRPD [1, 19]: Anhydrous
isolated solid identified by XRPD [2]: crystalline dihydrate form
Observed Forms 24 h ([3]; slurry in Acetone/water (99:1)): Anhydrous
Observed Forms 144 h ([3]; slurry in Acetone/water (99:1)): Anhydrous
Observed Forms 24 h ([3]; slurry in MEK/water (99:1)): Anhydrous
Observed Forms 144 h ([3]; slurry in MEK/water (99:1)): Dihydrate
SMILES: Cc1nc(-c2cnc(NC(C)C)n(C)c2=O)ccc1Oc1ccnc(-c2cnn(C)c2)c1 [2-(isopropylamino)-3-methyl-5-(6-methyl-5-((2-(1-methyl-1H-pyrazol-4-yl)pyridin-4-yl)oxy)pyridin-2-yl)pyrimidin-4 (3H)-one]

XRPD ([1]; static storage 25° C./0% RH, Week 1, dihydrate): Dihydrate
KF (%) ([1]; static storage 25° C./0% RH, Week 1, dihydrate, dihydrate crystals about 10-50 µm): 7.5%
XRPD ([1]; static storage 25° C./0% RH, Week 2, dihydrate): Dihydrate
KF (%) ([1]; static storage 25° C./0% RH, Week 2, dihydrate, dihydrate crystals about 10-50 µm): 7.7%
XRPD ([1]; static storage 25° C./0% RH, Week 3, dihydrate): Dihydrate
KF (%) ([1]; static storage 25° C./0% RH, Week 3, dihydrate, dihydrate crystals about 10-50 µm): 8.1%
XRPD ([1]; static storage 25° C./0% RH, Week 4, dihydrate): Dihydrate
KF (%) ([1]; static storage 25° C./0% RH, Week 4, dihydrate, dihydrate crystals about 10-50 µm): 7.9%
KF (%) [1, 20]: 5.8%
XRPD ([1]; static storage 25° C./97% RH, Week 1, dihydrate): Dihydrate
KF (%) ([1]; static storage 25° C./97% RH, Week 1, dihydrate, dihydrate crystals about 10-50 µm): 7.6%
XRPD ([1]; static storage 25° C./97% RH, Week 2, dihydrate): Dihydrate
KF (%) ([1]; static storage 25° C./97% RH, Week 2, dihydrate, dihydrate crystals about 10-50 µm): 7.5%
XRPD ([1]; static storage 25° C./97% RH, Week 3, dihydrate): Dihydrate
KF (%) ([1]; static storage 25° C./97% RH, Week 3, dihydrate, dihydrate crystals about 10-50 µm): 7.9%
XRPD ([1]; static storage 25° C./97% RH, Week 4, dihydrate): Dihydrate
KF (%) ([1]; static storage 25° C./97% RH, Week 4, dihydrate, dihydrate crystals about 10-50 µm): 7.9%
XRPD ([1]; static storage 25° C./97% RH, Week 4, listed as crystalline dihydrate form (having average crystal sizes of about 1 mm), dihydrate): remained stable and unchanged
XRPD [1, 21]: Pattern 4
KF (%) ([1]; static storage 40° C./0% RH, Week 1, dihydrate, dihydrate crystals about 10-50 µm): 7.5%
XRPD ([1]; static storage 40° C./0% RH, Week 1, listed as crystalline dihydrate form (having crystal sizes in the range of about 10-50 μm , dihydrate)): Pattern 4
XRPD ([1]; static storage 40° C./0% RH, Week 2, dihydrate): Pattern 4
KF (%) ([1]; static storage 40° C./0% RH, Week 2, dihydrate, dihydrate crystals about 10-50 µm): 7.4%
XRPD ([1]; static storage 40° C./0% RH, Week 2, listed as crystalline dihydrate form (having crystal sizes in the range of about 10-50 μm , dihydrate)): Pattern 4
XRPD ([1]; static storage 40° C./0% RH, Week 3, dihydrate): Anhydrous
KF (%) ([1]; static storage 40° C./0% RH, Week 3, dihydrate, dihydrate crystals about 10-50 µm): 7.0%
XRPD ([1]; static storage 40° C./0% RH, Week 3, listed as crystalline dihydrate form (having crystal sizes in the range of about 10-50 μm , dihydrate)): Pattern 4 and peaks at 9.9° and 10.6°
KF (%) ([1]; static storage 40° C./0% RH, Week 4, dihydrate, dihydrate crystals about 10-50 µm): 3.4%
KF (%) [1, 22]: 0.2%
XRPD ([1]; static storage 40° C./0% RH, Week 4, listed as crystalline dihydrate form (having crystal sizes in the range of about 10-50 μm , dihydrate)): Pattern 4 and peaks at 9.9° and 10.6°
XRPD ([1]; static storage 40° C./75% RH, Week 1, dihydrate): Dihydrate
KF (%) ([1]; static storage 40° C./75% RH, Week 1, dihydrate, dihydrate crystals about 10-50 µm): 7.5%
XRPD ([1]; static storage 40° C./75% RH, Week 2, dihydrate): Dihydrate
KF (%) ([1]; static storage 40° C./75% RH, Week 2, dihydrate, dihydrate crystals about 10-50 µm): 7.9%
XRPD ([1]; static storage 40° C./75% RH, Week 3, dihydrate): Dihydrate
KF (%) ([1]; static storage 40° C./75% RH, Week 3, dihydrate, dihydrate crystals about 10-50 µm): 8.0%
XRPD ([1]; static storage 40° C./75% RH, Week 4, dihydrate): Dihydrate
KF (%) ([1]; static storage 40° C./75% RH, Week 4, dihydrate, dihydrate crystals about 10-50 µm): 7.9%
XRPD ([1]; static storage 40° C./75% RH, Week 4, listed as crystalline dihydrate form (having average crystal sizes of about 1 mm), dihydrate): remained stable and unchanged
SMILES: Cc1nc(-c2cnc(NC(C)C)n(C)c2=O)ccc1Oc1ccnc(-c2cnn(C)c2)c1 [Dihydrate form of the compound represented by Formula (I) (h] [2-(isopropylamino)-3-methyl-5-(6-methyl-5-((2-(1-methyl-1H-pyrazol-4-yl)pyridin-4-yl)oxy)pyridin-2-yl)pyrimidin-4 (3H)-one dihydrate]
XRPD [1, 20]: partially converted to the crystalline anhydrous form
XRPD [1, 22]: partially converted to the crystalline anhydrous form

SMILES: Cc1nc(-c2cnc(NC(C)C)n(C)c2=O)ccc1Oc1ccnc(-c2cnn(C)c2)c1 [ground crystalline dihydrate form, 2-(isopropylamino)-3-methyl-5-(6-methyl-5-((2-(1-methyl-1H-pyrazol-4-yl)pyridin-4-yl)oxy)pyridin-2-yl)pyrimidin-4 (3H)-one dihydrate]
XRPD [1, 21]: Pattern 4 and the crystalline anhydrous form
